This data set deals with albino mouse ear vasculature. The experiment in a line: Phototoxicity to normal skin vasculature, Evans blue assay in albino mouse ear. Also noted: species or system Swiss-Webster mice. The note with it: in vivo; for M.E.D. (minimum effective dose to damage ear vasculature): 1440 min. From the text:
The major side effect of hematoporphyrin derivative preparations in tumor phototherapy is the extended phototoxicity to normal skin (by way of the exposed skin vasculature) for a month or longer after injection of therapeutic doses.
The Evans blue assay method assumes that the primary site of photodamage is the vascular system and uses Evans blue (colloidal dye) extravasation through damaged vascular wall into surrounding tissues to measure the relative phototoxicity as the minimum effective dose (M.E.D.) of photosensitizer necessary to cause a statistically significant increase in tissue Evans blue content. The higher the dose of photosensitizer required the lower the phototoxicity. […] This is possibly due in site aggregation and inhibition of the photosensitized reaction.

For Photofrin, the “Relative phototoxicity at higher doses” value was “relative phototoxicity is decreased at higher doses”.
As to tetraphenyl porphyrin sulfonate [TPPS], the “Evans Blue Increase” value turned out to be 84% and the “M.E.D. (minimum effective dose to damage ear vasculature)” value was 2.5 mg/kg.
Taken in the same sequence, the figures for zinc phthalocyanine sulfonate [ZPS] were 30% and 22 mg/kg.

Values taken from US4882234A, “Storage-stable porphin compositions and a method for their manufacture” (Healux, Inc., priority 1986, dated 1989).
